Assay results from article PMC10291551, “Characterization of a Potent and Orally Bioavailable Lys-Covalent Inhibitor of Apoptosis Protein (IAP) Antagonist” (Journal of Medicinal Chemistry, 2023).
Values after ≈ are worked out from the molar mass of the structure shown.

Columns and labels:
cIAP1-BIR3 = biological target: T1, cIAP1-BIR3 (Homo sapiens, UniProt Q13490); assay: DELFIA displacement assay (biotinylated AVPI peptide); type: binding
T1 construct: from the BIR3 domains of XIAP, cIAP1, and cIAP2

[1] = pH = 7.5, T = 25 °C; cited from earlier work
[2] = Solubility in dosing formulation; type: physicochemical; details: dosing formulation of 80% PBS, 10% ethanol, 10% Tween80, aqueous with cosolvent or surfactant or cyclodextrin
in vivo = details: Balb/c, mouse, plasma, 30 mg/kg
[3] = set-up: method as in PMID 31550155; details: cited from earlier work

With `CN[C@@H](C)C(=O)N[C@H](C(=O)N1CCC[C@H]1C(=O)N[C@@H]1CCc2c(O)cccc21)C1CCCCC1` [compound 1, (S)-1-((S)-2-cyclohexyl-2-((S)-2-(methylamino)propanamido)acetyl)-N-((R)-4-hydroxy-2,3-dihydro-1H-inden-1-yl)pyrrolidine-2-carboxamide] the IC50 (cIAP1-BIR3; after 6 h preincubation (bottom values)) was 0.0193 µM and the IC50 (cIAP1-BIR3; without preincubation (top values)) was 0.0166 ± 0.0017 µM.
In the case of `CN[C@@H](C)C(=O)N[C@H](C(=O)N1CCC[C@H]1C(=O)N[C@@H]1CCc2c(OS(=O)(=O)F)cccc21)C1CCCCC1` [142D6, (R)-1-((S)-1-((S)-2-cyclohexyl-2-((S)-2-(methylamino)propanamido)acetyl)pyrrolidine-2-carboxamido)-2,3-dihydro-1H-inden-4-yl sulfurofluoridate], the “solubility in aqueous buffer” value [1] is listed as “up to 2 mM”, the solubility [2] is listed as 7.5 mg/mL (≈ 13.6 mM) and the bioavailability at 24 h (in vivo; ip) is listed as 35%. It also gave a bioavailability at 24 h (in vivo; po) of 36%.
In the case of `CN[C@@H](C)C(=O)N[C@H](C(=O)N1CCC[C@H]1c1nc(C(=O)c2ccc(F)cc2)cs1)C1CCCCC1` [LCL161], the “plasma stability t1/2” value [3] is listed as over 2 h.
